# Laboratory results: patent EP3909578A1, “ANTIVIRAL COMPOSITION COMPRISING EEYARESTATIN I” (Universidad de Castilla la Mancha, priority 2020, dated 2021)
# Where two headings read alike, the source gives them in different places.
# Tests used:
# Zika virus [1] = assay: Inhibition of Zika virus replication in infected Vero cell culture (MOI 1, virus yield by TCID50); assay type: cell-based; conditions: for Zika virus replication during infections in cell culture: Vero cells, MOI of 1, drug added after 1 hour adsorption, 24 hours post infection
# Description: • Figure 1. Schematic representation of flavivirus life cycle and steps inhibited by eeyarestatin I. The antiviral effect observed during treatment with eeyarestatin I can be due to the inhibition of at least three different steps of the life cycle (indicated with a red star and highlighted in red letters). A, Inhibition of the valosin-containing protein / p97 ATPase (VCP/p97) and/or ERAD pathway indirectly affects virus replication on ER factories. B, Inhibition of VCP/p97 affects virus uncoating. C, Novel mechanism of action described in this invention: eeyarestatin I reduces virus particle infectivity before entering the cell (discovery patented here). • Figure 2. Cell viability after exposure to VCP/p97 inhibitors. Viability of Vero (African green monkey kidney fibroblasts) cells treated with VCP/p97 inhibitors xanthohumol (XAN) and eeyarestatin I (EEY) during 24 (A) or 48 hours (B). Cellular viability is represented as the percentage of metabolically active cells relative to mock-treated cells (CellTiter-Blue Cell Viability Assay, Promega). There are given the 50% cytotoxicity concentration (CC50) values for each drug and exposure time tested. • Figure 3. VCP/p97 drugs Xanthohumol and eeyarestatin I inhibit virus replication in cell culture (Vero cells). Virus titres measured by 50% tissue culture infectious dose (TCID50) in the supernatants of Zika virus-infected cells. A, Schematic representation of the assay. A monolayer of Vero cells was inoculated with Zika virus at a multiplicity of infection (MOI) of 1 TCID50 per cell (input). After 1 hour of incubation at 37°C, to allow virus adsorption, the supernatant was removed, the cells washed, and fresh media containing each drug at the concentrations indicated was added. At 24 hours post infection the cellular supernatants were collected (virus progeny) and the virus yields quantified by TCID50 (virus titration). B-C, Changes in virus titres and cell viability in cultures treated with increasing concentrations of eeyarestatin I (B) and xanthohumol (C) for 24 hours. […]
# [2] = test system: Zika virus passaged during nine consecutive transfers (p9); assay: Virucidal activity on Zika virus populations after nine passages with or without 5 µM eeyarestatin I (resistance selection)
# Description: • Figure 1. Schematic representation of flavivirus life cycle and steps inhibited by eeyarestatin I. The antiviral effect observed during treatment with eeyarestatin I can be due to the inhibition of at least three different steps of the life cycle (indicated with a red star and highlighted in red letters). A, Inhibition of the valosin-containing protein / p97 ATPase (VCP/p97) and/or ERAD pathway indirectly affects virus replication on ER factories. B, Inhibition of VCP/p97 affects virus uncoating. C, Novel mechanism of action described in this invention: eeyarestatin I reduces virus particle infectivity before entering the cell (discovery patented here). • Figure 2. Cell viability after exposure to VCP/p97 inhibitors. Viability of Vero (African green monkey kidney fibroblasts) cells treated with VCP/p97 inhibitors xanthohumol (XAN) and eeyarestatin I (EEY) during 24 (A) or 48 hours (B). Cellular viability is represented as the percentage of metabolically active cells relative to mock-treated cells (CellTiter-Blue Cell Viability Assay, Promega). There are given the 50% cytotoxicity concentration (CC50) values for each drug and exposure time tested. • Figure 3. VCP/p97 drugs Xanthohumol and eeyarestatin I inhibit virus replication in cell culture (Vero cells). Virus titres measured by 50% tissue culture infectious dose (TCID50) in the supernatants of Zika virus-infected cells. A, Schematic representation of the assay. A monolayer of Vero cells was inoculated with Zika virus at a multiplicity of infection (MOI) of 1 TCID50 per cell (input). After 1 hour of incubation at 37°C, to allow virus adsorption, the supernatant was removed, the cells washed, and fresh media containing each drug at the concentrations indicated was added. At 24 hours post infection the cellular supernatants were collected (virus progeny) and the virus yields quantified by TCID50 (virus titration). B-C, Changes in virus titres and cell viability in cultures treated with increasing concentrations of eeyarestatin I (B) and xanthohumol (C) for 24 hours. The 50% inhibitory concentration (IC50) and the selectivity index (SI) values are provided for each drug. […] A, Schematic representation of the assay. The virus sample is directly incubated at 37°C in the presence of increasing concentrations of drugs. The treated sample is collected at different time points and directly titrated by TCID50. B-D Decrease in infectivity observed in a virus sample treated with amantadine (AMA), xanthohumol (XAN) or eeyarestatin I (EEY) and compared to a virus sample untreated (no drug) or mock-treated with vehicle (DMSO). B, Zika virus was incubated during 4 hours at 37°C in the presence of EEY (10 µM), XAN (10 µM), AMA (800 µM) or in the absence of drugs. […]
# Usutu virus = assay: Virucidal activity: cell-free incubation of virus sample with drug at 37°C, then TCID50 titration; conditions: for virucidal activity (loss of viral infectivity): incubation at 37°C in the absence of cells, 6 µM over time
# Description: (§1) • Figure 1. Schematic representation of flavivirus life cycle and steps inhibited by eeyarestatin I. The antiviral effect observed during treatment with eeyarestatin I can be due to the inhibition of at least three different steps of the life cycle (indicated with a red star and highlighted in red letters). A, Inhibition of the valosin-containing protein / p97 ATPase (VCP/p97) and/or ERAD pathway indirectly affects virus replication on ER factories. B, Inhibition of VCP/p97 affects virus uncoating. C, Novel mechanism of action described in this invention: eeyarestatin I reduces virus particle infectivity before entering the cell (discovery patented here). • Figure 2. Cell viability after exposure to VCP/p97 inhibitors. Viability of Vero (African green monkey kidney fibroblasts) cells treated with VCP/p97 inhibitors xanthohumol (XAN) and eeyarestatin I (EEY) during 24 (A) or 48 hours (B). Cellular viability is represented as the percentage of metabolically active cells relative to mock-treated cells (CellTiter-Blue Cell Viability Assay, Promega). There are given the 50% cytotoxicity concentration (CC50) values for each drug and exposure time tested. • Figure 3. VCP/p97 drugs Xanthohumol and eeyarestatin I inhibit virus replication in cell culture (Vero cells). Virus titres measured by 50% tissue culture infectious dose (TCID50) in the supernatants of Zika virus-infected cells. A, Schematic representation of the assay. A monolayer of Vero cells was inoculated with Zika virus at a multiplicity of infection (MOI) of 1 TCID50 per cell (input). After 1 hour of incubation at 37°C, to allow virus adsorption, the supernatant was removed, the cells washed, and fresh media containing each drug at the concentrations indicated was added. At 24 hours post infection the cellular supernatants were collected (virus progeny) and the virus yields quantified by TCID50 (virus titration). B-C, Changes in virus titres and cell viability in cultures treated with increasing concentrations of eeyarestatin I (B) and xanthohumol (C) for 24 hours. The 50% inhibitory concentration (IC50) and the selectivity index (SI) values are provided for each drug. […] A, Schematic representation of the assay. The virus sample is directly incubated at 37°C in the presence of increasing concentrations of drugs. The treated sample is collected at different time points and directly titrated by TCID50. B-D Decrease in infectivity observed in a virus sample treated with amantadine (AMA), xanthohumol (XAN) or eeyarestatin I (EEY) and compared to a virus sample untreated (no drug) or mock-treated with vehicle (DMSO). B, Zika virus was incubated during 4 hours at 37°C in the presence of EEY (10 µM), XAN (10 µM), AMA (800 µM) or in the absence of drugs. C, Changes in the infectivity along time of a Zika virus sample incubated at 37°C in the presence of 6 µM EEY or XAN, or in the absence of drugs (No drug, DMSO). D, Changes in Usutu virus infectivity along time for a sample incubated at 37°C in the presence of 6 µM EEY or XAN, or in the absence of drugs (No drug, DMSO). • Figure 5. Eeyarestatin I exerts virucidal activity in a dose-dependent manner. […] Eeyarestatin I half maximum inhibitory concentration (IC50) is <1 µM for both Zika (A) and Usutu (B) viruses. • Figure 6. […] A, Schematic representation of the procedure to select adapted virus. In each virus passage, 100 µl of neat virus from the previous passage are inoculated to a monolayer of 10^5 Vero cells. After cell wash, the monolayer is incubated at 37°C and 5% CO2 in 1 ml of media (DMEM, 10% foetal bovine serum, 100 units penicillin-streptomycin) in the presence (EEY-adapted) or absence (untreated) of 5 µM eeyarestatin I. At 48 hours post-infection, the cellular supernatants are collected, titrated, and employed for the following virus passage. This process is repeated for a total of nine viral transfers. […]
# Zika virus [3] = assay: as above; conditions: for virucidal activity (loss of viral infectivity): incubation at 37°C in the absence of cells, EEY 10 µM, XAN 10 µM, AMA 800 µM for 4 hours, or 6 µM over time
# Description: as §1
# Vero cells = assay: Cell viability of Vero cells after exposure to VCP/p97 inhibitors (CellTiter-Blue Cell Viability Assay); assay type: cell-based, African green monkey
# Description: • Figure 1. Schematic representation of flavivirus life cycle and steps inhibited by eeyarestatin I. The antiviral effect observed during treatment with eeyarestatin I can be due to the inhibition of at least three different steps of the life cycle (indicated with a red star and highlighted in red letters). A, Inhibition of the valosin-containing protein / p97 ATPase (VCP/p97) and/or ERAD pathway indirectly affects virus replication on ER factories. B, Inhibition of VCP/p97 affects virus uncoating. C, Novel mechanism of action described in this invention: eeyarestatin I reduces virus particle infectivity before entering the cell (discovery patented here). • Figure 2. Cell viability after exposure to VCP/p97 inhibitors. Viability of Vero (African green monkey kidney fibroblasts) cells treated with VCP/p97 inhibitors xanthohumol (XAN) and eeyarestatin I (EEY) during 24 (A) or 48 hours (B). Cellular viability is represented as the percentage of metabolically active cells relative to mock-treated cells (CellTiter-Blue Cell Viability Assay, Promega). […] Virus titres measured by 50% tissue culture infectious dose (TCID50) in the supernatants of Zika virus-infected cells. […] At 24 hours post infection the cellular supernatants were collected (virus progeny) and the virus yields quantified by TCID50 (virus titration). […]
# [4] = cell-free incubation at 37°C, listed as Eeyarestatin I, read-out: IC50 (virucidal activity)
# [5] = cell-free incubation at 37°C, read-out: IC50 (virucidal activity)
Structure (SMILES),Zika virus replication during infections in cell culture (Zika virus [1]),"IC50 ([2]; EEY-adapted Zika virus p9 (nine passages in 5 µM eeyarestatin I), 37°C for 4 hours)",IC50 ([2]; adapted Zika virus population (passaged 9 times in the presence of eeyarestatin I)),"IC50 ([2]; untreated Zika virus p9 (nine passages without drug), 37°C for 4 hours)",IC50 ([2]; untreated Zika virus population (nine passages in the absence of drugs)),IC50 (Usutu virus; [4]),IC50 (Usutu virus; [5]),virucidal activity (loss of viral infectivity) (Usutu virus),"IC50 (Usutu virus; time = 4 hours, read-out: estimated IC50)",IC50 (Zika virus [3]; [4]),IC50 (Zika virus [3]; [5]),virucidal activity (loss of viral infectivity) (Zika virus [3]),"IC50 (Zika virus [3]; time = 4 hours, read-out: estimated inhibitory constant)",toxicity in cell culture (Vero cells; 5 µM eeyarestatin I),"CC50 (Vero cells; time = 24 hours, read-out: 50% toxicity for Vero cells (CC50))",selectivity index (ratio of CC50 and IC50) (Zika virus [1]; Zika virus replication in Vero cells)
CC1(C)C(N(O)C(=O)Nc2ccc(Cl)cc2)N(c2ccc(Cl)cc2)C(=O)N1CC(=O)N/N=C/C=C/c1ccc([N+](=O)[O-])o1 (centres unmarked) [eeyarestatin I],inhibit Zika virus replication,130 nM,130 nM,310 nM,310 nM,< 1000 nM,150 nM,inhibits Usutu virus infectivity,150 nM,< 1000 nM,590 nM,significant loss of infectivity,< 600 nM,very modest toxicity,24000 nM,
"COc1cc(O)c(CC=C(C)C)c(O)c1C(=O)/C=C/c1ccc(O)cc1 [xanthohumol, reference compound]",inhibit Zika virus replication,,,,,,,no virucidal activity,,,,did not affect viral infectivity,,,,> 5
"NC12CC3CC(CC(C3)C1)C2 [amantadine, reference compound]",,,,,,,,,,,,did not affect viral infectivity,,,,
